The test system of data set [1] is SMMC-7721. Description: Cytotoxicity against human SMMC7721 cells assessed as reduction in cell viability after 48 hrs by MTT assay. It is filed as functional, cell-based. The conditions noted are these: SMMC-7721, 48 h.
Data set [2] can be described thus: Hemolytic activity against New Zealand rabbit erythrocytes after 60 mins. In kind it is ADME, cell-based, Oryctolagus cuniculus, Erythrocyte. The settings on record: read-out: HD50.
Data set [3] deals with A549. Description: Cytotoxicity against human A549 cells assessed as reduction in cell viability after 48 hrs by MTT assay. In kind it is functional, cell-based. The settings on record: A549, 48 h.
Data set [4] concerns BGC-823. Briefly: Cytotoxicity against human BGC823 cells assessed as reduction in cell viability after 48 hrs by MTT assay. The conditions noted are these: BGC-823, 48 h. It is filed as functional, cell-based.

The source of these data is ChEMBL document CHEMBL4007448, “The derivatives of Pulsatilla saponin A, a bioactive compound from Pulsatilla chinensis: Their synthesis, cytotoxicity, haemolytic toxicity and mechanism of action” (Eur J Med Chem, 2017).

For the compound `C[C@H]1O[C@@H](O[C@H]2[C@H](O[C@H]3CC[C@@]4(C)[C@@H](CC[C@]5(C)[C@@H]4CC=C4[C@@H]6CC(C)(C)CC[C@]6(C(=O)OCCO[N+](=O)[O-])CC[C@]45C)[C@]3(C)CO)OC[C@H](O)[C@@H]2O)[C@H](O)[C@H](O)[C@H]1O`, the concentration for half-maximal inhibition (IC50) turned out to be 17.8 µM in data set [1], 80.2 µM in data set [3] and 33.1 µM in data set [4]. In addition, in data set [2], the HC50 at 1 h came out at 16.2 µM.
In the same order, the values of `C[C@H]1O[C@@H](O[C@H]2[C@H](O[C@H]3CC[C@@]4(C)[C@@H](CC[C@]5(C)[C@@H]4C/C(=N/O)[C@@H]4[C@@H]6CC(C)(C)CC[C@]6(C(=O)O)CC[C@]45C)[C@]3(C)CO)OC[C@H](O)[C@@H]2O)[C@H](O)[C@H](O)[C@H]1O` are 69.4 µM, above 100 µM, 95.6 µM and above 500 µM.
Consider `C[C@H]1O[C@@H](O[C@H]2[C@H](O[C@H]3CC[C@@]4(C)[C@@H](CC[C@]5(C)[C@@H]4CC(O)[C@]46OC(=O)[C@@]7(CCC(C)(C)C[C@H]74)CC[C@@]56C)[C@]3(C)CO)OC[C@H](O)[C@@H]2O)[C@H](O)[C@H](O)[C@H]1O` (some centres not stated), for which the IC50 in data set [1] was 56.6 µM; in data set [3] it was above 100 µM; in data set [4] it was 81.9 µM. The HC50 at 1 h in data set [2] was 77.7 µM.
In the same order, the values of `C[C@H]1O[C@@H](O[C@H]2[C@H](O[C@H]3CC[C@@]4(C)[C@@H](CC[C@]5(C)[C@@H]4CC=C4[C@@H]6CC(C)(C)CC[C@]6(C(=O)OCCCCCCO[N+](=O)[O-])CC[C@]45C)[C@]3(C)CO)OC[C@H](O)[C@@H]2O)[C@H](O)[C@H](O)[C@H]1O` are 15.4 µM, 65.2 µM, 33.1 µM and 3.79 µM.
The matching figures for `C[C@H]1O[C@@H](O[C@H]2[C@H](O[C@H]3CC[C@@]4(C)[C@@H](CC[C@]5(C)[C@@H]4CC(=O)[C@@H]4[C@@H]6CC(C)(C)CC[C@]6(C(=O)NCC(=O)O)CC[C@]45C)[C@]3(C)CO)OC[C@H](O)[C@@H]2O)[C@H](O)[C@H](O)[C@H]1O`: 44 µM, 95.8 µM, 86.1 µM and 339 µM.
The matching figures for `C[C@H]1O[C@@H](O[C@H]2[C@H](O[C@H]3CC[C@@]4(C)[C@@H](CC[C@]5(C)[C@@H]4CC=C4[C@@H]6CC(C)(C)CC[C@]6(C(=O)NCCCCCC(=O)O)CC[C@]45C)[C@]3(C)CO)OC[C@H](O)[C@@H]2O)[C@H](O)[C@H](O)[C@H]1O`: 27.4 µM, above 100 µM, 65.5 µM and 393 µM.
For the compound `CC(=O)OC[C@@]1(C)[C@@H]2CC[C@]3(C)[C@H](CC=C4[C@@H]5CC(C)(C)CC[C@]5(C(=O)O)CC[C@]43C)[C@@]2(C)CC[C@@H]1O[C@@H]1OC[C@H](OC(C)=O)[C@H](OC(C)=O)[C@H]1O[C@@H]1O[C@H](C)[C@H](OC(C)=O)[C@@H](OC(C)=O)[C@H]1OC(C)=O`, the values for the IC50 in data set [1], in data set [3] and in data set [4] were 69.9 µM, 72.1 µM and 74 µM, respectively.
Consider `C[C@H]1O[C@@H](O[C@H]2[C@H](O[C@H]3CC[C@@]4(C)[C@@H](CC[C@]5(C)[C@@H]4CC(=O)[C@@H]4[C@@H]6CC(C)(C)CC[C@]6(C(=O)O)CC[C@]45C)[C@]3(C)CO)OC[C@H](O)[C@@H]2O)[C@H](O)[C@H](O)[C@H]1O`, for which the IC50 is 53.8 µM in data set [1], 91 µM in data set [3] and 77.2 µM in data set [4]. Also, in data set [2], the HC50 at 1 h came out at 190 µM.
For the compound `CC(=O)OC[C@@]1(C)[C@@H]2CC[C@]3(C)[C@H](CC(O)[C@]45OC(=O)[C@@]6(CCC(C)(C)C[C@H]64)CC[C@@]35C)[C@@]2(C)CC[C@@H]1O[C@@H]1OC[C@H](OC(C)=O)[C@H](OC(C)=O)[C@H]1O[C@@H]1O[C@H](C)[C@H](OC(C)=O)[C@@H](OC(C)=O)[C@H]1OC(C)=O` (some centres not stated), the figures for the 50% inhibitory concentration (IC50) in data set [1], in data set [3] and in data set [4] were 90.2 µM, above 100 µM and above 100 µM, respectively.
`C[C@H]1O[C@@H](O[C@H]2[C@H](O[C@H]3CC[C@@]4(C)[C@@H](CC[C@]5(C)[C@@H]4CC=C4[C@@H]6CC(C)(C)CC[C@]6(C(=O)OCCCCO[N+](=O)[O-])CC[C@]45C)[C@]3(C)CO)OC[C@H](O)[C@@H]2O)[C@H](O)[C@H](O)[C@H]1O`: the half-inhibitory concentration (IC50) amounted to 22.1 µM in data set [1], 84.5 µM in data set [3] and 66.5 µM in data set [4]. In addition, the HC50 at 1 h in data set [2] was determined as 14.9 µM.
The matching figures for `C[C@H]1O[C@@H](O[C@H]2[C@H](O[C@H]3CC[C@@]4(C)[C@@H](CC[C@]5(C)[C@@H]4CC(=O)[C@]46OC(=O)[C@@]7(CCC(C)(C)C[C@H]74)CC[C@@]56C)[C@]3(C)CO)OC[C@H](O)[C@@H]2O)[C@H](O)[C@H](O)[C@H]1O`: 70.6 µM, above 100 µM, 80.3 µM and above 500 µM.
The matching figures for `C[C@H]1O[C@@H](O[C@H]2[C@H](O[C@H]3CC[C@@]4(C)[C@@H](CC[C@]5(C)[C@@H]4C(=O)C=C4[C@@H]6CC(C)(C)CC[C@]6(C(=O)O)CC[C@]45C)[C@]3(C)CO)OC[C@H](O)[C@@H]2O)[C@H](O)[C@H](O)[C@H]1O`: 58.8 µM, above 100 µM, 82.6 µM and above 500 µM.
On to `C[C@H]1O[C@@H](O[C@H]2[C@H](O[C@H]3CC[C@@]4(C)[C@@H](CC[C@]5(C)[C@@H]4CC=C4[C@@H]6CC(C)(C)CC[C@]6(C(=O)NCCCC(=O)O)CC[C@]45C)[C@]3(C)CO)OC[C@H](O)[C@@H]2O)[C@H](O)[C@H](O)[C@H]1O`, for which the results for the IC50 in data set [1], in data set [3] and in data set [4] were 27.3 µM, 98.7 µM and 70.2 µM, respectively. Besides, in data set [2], the HC50 at 1 h was determined as 313 µM.
In the case of `C[C@H]1O[C@@H](O[C@H]2[C@H](O[C@H]3CC[C@@]4(C)[C@@H](CC[C@]5(C)[C@@H]4CC=C4[C@@H]6CC(C)(C)CC[C@]6(C(=O)NCC(=O)NCC(=O)O)CC[C@]45C)[C@]3(C)CO)OC[C@H](O)[C@@H]2O)[C@H](O)[C@H](O)[C@H]1O`, the IC50 in data set [1] was 57.8 µM; in data set [3], above 100 µM; in data set [4] it was 76.3 µM. In data set [2], the HC50 at 1 h was above 500 µM.
Regarding `C[C@H]1O[C@@H](O[C@H]2[C@H](O[C@H]3CC[C@@]4(C)[C@@H](CC[C@]5(C)[C@@H]4CC=C4[C@@H]6CC(C)(C)CC[C@]6(C(=O)NCCCCC(=O)O)CC[C@]45C)[C@]3(C)CO)OC[C@H](O)[C@@H]2O)[C@H](O)[C@H](O)[C@H]1O`, the IC50 in data set [1] was 26.8 µM; in data set [3], above 100 µM; in data set [4] it was 67.8 µM. In addition, the HC50 at 1 h in data set [2] was 228 µM.
As for `C[C@H]1O[C@@H](O[C@H]2[C@H](O[C@H]3CC[C@@]4(C)[C@@H](CC[C@]5(C)[C@@H]4C(=O)C=C4[C@@H]6CC(C)(C)CC[C@]6(C(=O)NCC(=O)O)CC[C@]45C)[C@]3(C)CO)OC[C@H](O)[C@@H]2O)[C@H](O)[C@H](O)[C@H]1O`, the 50% inhibitory concentration (IC50) in data set [1] is 46.7 µM; in data set [3], above 100 µM; in data set [4] it was 93.7 µM. Further, the HC50 at 1 h in data set [2] is 461 µM.
